# From ChEMBL document CHEMBL3392926, “Antiprotozoal Activity Profiling of Approved Drugs: A Starting Point toward Drug Repositioning”
# How the values were obtained:
# Leishmania donovani [1] = test: microbe, parasite or virus in culture; type: functional, organism-based, MHOM/ET/67/L82; conditions: Leishmania donovani, MHOM/ET/67/L82, 96 h
# Description: DNDI: Leish (macro) in Vitro, 96 hour
# Leishmania donovani [2] = test: microbe, parasite or virus in culture; type: functional, organism-based, MHOM/ET/67/L82; conditions: Leishmania donovani, MHOM/ET/67/L82, 72 h
# Description: DNDI: Leish (axenic) in Vitro, 72 hour
# cells [3] = type: functional, cell-based; conditions: Mus musculus, NMRI, BalbC or CD1 mice, Macrophage, 96 h
# Description: DNDI: Cytotoxicity in Vitro, 96 hour, in mouse macrophages (infected-amastigotes)
# cells [4] = type: functional, cell-based; conditions: Rattus norvegicus, L6, 72 h
# Description: DNDI: Cytotoxicity in Vitro, 72 hour, in rat skeletal myoblast cells
# [5] = test system: Trypanosoma brucei rhodesiense; test: microbe, parasite or virus in culture; type: functional, organism-based, STIB 900; conditions: Trypanosoma brucei, STIB 900, 72 h
# Description: DNDI: HAT in Vitro, 72 hour
# Trypanosoma cruzi = test: microbe, parasite or virus in culture; type: functional, organism-based, Tulahuen C4 (LacZ); conditions: Trypanosoma cruzi, Tulahuen C4 (LacZ), 96 h
# Description: DNDI: Chagas in Vitro, 96 hour
# Plasmodium falciparum = test: microbe, parasite or virus in culture; type: functional, organism-based, K1; conditions: Plasmodium falciparum, K1, 72 h
# Description: DNDI: Malaria in Vitro, 72 hour
SMILES,IC50 (Leishmania donovani [1]) [µM],IC50 (Leishmania donovani [2]) [µM],IC50 (cells [3]) [µM],IC50 (cells [4]) [µM],IC50 [5] [µM],IC50 (Trypanosoma cruzi) [µM],IC50 (Plasmodium falciparum) [µM]
NC(=O)c1cnccn1 [PYRAZINAMIDE],> 244,> 812,> 244,458,> 812,–,–
C[C@@H](Cc1cccc(C(F)(F)F)c1)NCCOC(=O)c1ccccc1,54.4,–,> 85.4,49.1,21.1,73.7,6.52
C[C@H](N)C12CC3CC(CC(C3)C1)C2,> 167,–,> 167,311,13.8,–,0.97
OC(Cn1cncn1)(Cn1cncn1)c1ccc(F)cc1F [FLUCONAZOLE],> 98,–,> 98,> 294,–,9.96,–
Cn1c([N+](=O)[O-])cnc1N1CCN(S(C)(=O)=O)C1=O [SATRANIDAZOLE],> 104,10.4,> 104,> 311,18.7,19.1,–
Cc1oncc1C(=O)Nc1ccc(C(F)(F)F)cc1 [LEFLUNOMIDE],> 111,21.8,> 111,124,–,–,> 18.5
O=C(O)COCCN1CCN(C(c2ccccc2)c2ccc(Cl)cc2)CC1 (configuration not stated) [CETIRIZINE],> 70.5,–,> 70.5,149,99.5,–,20
CC(C)CN(C[C@@H](O)[C@H](Cc1ccccc1)NC(=O)O[C@H]1CO[C@H]2OCC[C@H]21)S(=O)(=O)c1ccc(N)cc1,> 54.8,–,–,–,31.4,92.2,46.9
CC(=O)N1CCN(c2ccc(OCC3COC(Cn4ccnc4)(c4ccc(Cl)cc4Cl)O3)cc2)CC1 (configuration not stated) [KETOCONAZOLE],> 18.8,38.8,–,51,33.1,0.27,–
CN(C)CCCN1c2ccccc2CCc2ccc(Cl)cc21 [CLOMIPRAMINE],–,–,31.8,19.8,–,–,–
Clc1ccc(C(OCCN2CCCCC2)c2ccccc2)cc1 (configuration not stated) [CLOPERASTINE],> 30.3,–,90.9,43.4,4.91,9.46,0.87
CCN(CC)CCCC(C)Nc1ccnc2cc(Cl)ccc12 (configuration not stated) [CHLOROQUINE],> 58.9,> 196,> 58.9,50.6,3.81,99.2,–
CN1CCC(=C2c3ccccc3CCc3sccc32)CC1 [PIZOTYLINE],> 33.9,–,> 102,45,3.99,30.6,1.86
Cc1cn([C@H]2C=C[C@@H](CO)O2)c(=O)[nH]c1=O [STAVUDINE],> 134,> 446,> 134,266,–,–,–
CCCSc1ccc2[nH]c(NC(=O)OC)nc2c1 [ALBENDAZOLE],> 3.77,> 113,11.3,0.41,14.7,12.3,–
Cc1nc2ccccn2c(=O)c1CCN1CCC(C(=O)c2ccc(F)cc2)CC1 [PIRENPERONE],> 76.2,–,> 76.2,232,30,–,4.35
CC(=O)OCC(CCn1cnc2cnc(N)nc21)COC(C)=O [FAMCICLOVIR],> 93.4,> 311,> 93.4,180,–,–,> 156
Cc1cn([C@H]2C[C@H](N=[N+]=[N-])[C@@H](CO)O2)c(=O)[nH]c1=O [ZIDOVUDINE],> 112,> 374,> 112,207,–,–,–
CN(C)CCC=C1c2ccccc2CCc2ccccc21 [AMITRIPTYLINE],> 10.8,–,36.1,42.2,3.03,35.1,1.16

SMILES,IC50 (Leishmania donovani [1]) [µM],IC50 (Leishmania donovani [2]) [µM],IC50 (cells [3]) [µM],IC50 (cells [4]) [µM],IC50 [5] [µM],IC50 (Trypanosoma cruzi) [µM],IC50 (Plasmodium falciparum) [µM]
CC(C)CN(C[C@@H](O)[C@H](Cc1ccccc1)NC(=O)O[C@H]1CCOC1)S(=O)(=O)c1ccc(N)cc1,> 59.3,–,> 59.3,160,28.5,–,15.2
Clc1ccc2c(c1)C(N1CCNCC1)=Nc1ccccc1O2 [AMOXAPINE],–,–,31.9,16.2,–,–,–
CCN(CC)CCOc1ccc(/C(=C(/Cl)c2ccccc2)c2ccccc2)cc1 [ENCLOMIPHENE],–,–,24.6,13.1,–,–,–
Cc1ncc([N+](=O)[O-])n1CC(C)O (configuration not stated) [SECNIDAZOLE],> 161,> 161,> 161,> 483,28.7,> 161,–
OCCN1CCN(CCCN2c3ccccc3Sc3ccc(C(F)(F)F)cc32)CC1 [FLUPHENAZINE],–,–,22.9,11.5,–,–,–
CSc1ccc2c(c1)N(CC[C@H]1CCCCN1C)c1ccccc1S2,–,–,> 81,> 243,–,–,–
Nc1nc2c(ncn2COC(CO)CO)c(=O)[nH]1 [GANCICLOVIR],> 118,> 392,> 118,179,–,–,> 196
Cc1ncc([N+](=O)[O-])n1CCO [METRONIDAZOLE],> 175,–,> 175,339,–,–,–
O=C1CN(/N=C/c2ccc([N+](=O)[O-])o2)C(=O)N1 [NITROFURANTOIN],> 41.8,2.12,125,90.3,0.5,4.35,–
CN/C(=N\CCSCc1nc[nH]c1C)NC#N [CIMETIDINE],> 119,> 396,> 119,302,> 396,–,29.2
CNCC[C@H](Oc1ccc(C(F)(F)F)cc1)c1ccccc1,–,–,32.3,15,–,–,–
Nc1nc(O)c2ncn(CCC(CO)CO)c2n1 [PENCICLOVIR],> 118,> 395,> 118,220,> 395,–,–
NC12CC3CC(CC(C3)C1)C2 [AMANTADINE],> 198,> 595,> 198,215,52.8,–,5.67
CN1CCC(=C2c3ccccc3CC(=O)c3sccc32)CC1 [KETOTIFEN],> 97,> 291,> 97,147,15.2,–,0.75
O=C(O)c1nn(Cc2ccc(Cl)cc2Cl)c2ccccc12 [LONIDAMINE],> 93.4,8.66,> 93.4,273,–,–,> 15.6
CCn1cc(C(=O)O)c(=O)c2cc(F)c(N3CCNCC3)nc21 [ENOXACIN],> 93.7,> 312,> 93.7,25,–,–,76.8
Cc1ncc([N+](=O)[O-])n1CC(O)CCl (configuration not stated) [ORNIDAZOLE],> 136,> 136,> 136,> 408,25.9,–,–
Nc1ccc(S(=O)(=O)c2ccc(N)cc2)cc1 [DAPSONE],> 121,> 403,> 121,204,–,–,–
CCc1nc(N)nc(N)c1-c1ccc(Cl)cc1 [PYRIMETHAMINE],> 12.1,–,> 12.1,2.51,6.75,5.71,–
